Assay results as given in ChEMBL document CHEMBL4024738, “Design of antitumor agents containing carbohydrate based on GLUT1, and evaluation of antiproliferative activity” (Bioorg Med Chem Lett, 2017).

Experiments:
[1] = system: HepG2; experiment: Antiproliferative activity against human HepG2 cells after 48 hrs by MTT assay; format: functional, cell-based; conditions: HepG2, 48 h
[2] = Antiproliferative activity against human U87 cells after 48 hrs by MTT assay; format: functional, cell-based, U-87MG ATCC; conditions: U-87 MG
[3] = system: A549; experiment: Antiproliferative activity against human A549 cells after 48 hrs by MTT assay; format: functional, cell-based; conditions: A549, 48 h
[4] = system: HeLa; experiment: Antiproliferative activity against human HeLa cells after 48 hrs by MTT assay; format: functional, cell-based
[5] = target: T1, Solute carrier family 2, facilitated glucose transporter member 1 (Homo sapiens, UniProt P11166); experiment: Substrate activity at GLUT1 in human A549 cells assessed cellular uptake at 20 uM after 8 hrs by HPLC analysis relative to control; format: ADME, cell-based; conditions: a549, 8 h
T1 sequence (P11166 whole entry): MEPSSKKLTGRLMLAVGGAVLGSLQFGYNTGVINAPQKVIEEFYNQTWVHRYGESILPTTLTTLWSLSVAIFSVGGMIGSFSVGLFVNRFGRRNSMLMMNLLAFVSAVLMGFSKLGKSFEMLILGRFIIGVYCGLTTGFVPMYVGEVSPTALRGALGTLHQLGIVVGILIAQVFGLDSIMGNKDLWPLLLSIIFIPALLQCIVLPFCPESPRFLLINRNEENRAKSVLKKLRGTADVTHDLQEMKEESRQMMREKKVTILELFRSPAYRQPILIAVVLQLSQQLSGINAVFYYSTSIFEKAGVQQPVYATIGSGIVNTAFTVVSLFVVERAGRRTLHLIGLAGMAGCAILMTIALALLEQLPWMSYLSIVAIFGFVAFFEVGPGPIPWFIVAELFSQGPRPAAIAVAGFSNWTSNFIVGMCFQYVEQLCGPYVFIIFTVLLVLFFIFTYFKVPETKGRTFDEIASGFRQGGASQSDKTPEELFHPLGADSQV

[6] = system: A549; experiment: Cell cycle arrest in human A549 cells assessed as accumulation at S phase at 24 uM after 48 hrs by propidium iodide staining based flow cytometric analysis (reference value: 54.85%); format: functional
[7] = target: T1, Solute carrier family 2, facilitated glucose transporter member 1; experiment: Substrate activity at GLUT1 in human A549 cells assessed cellular uptake at 20 uM after 8 hrs in presence of 100 mM D-glucose by HPLC analysis relative to control; format: ADME, cell-based; conditions: a549, 8 h
[8] = system: A549; experiment: Cell cycle arrest in human A549 cells assessed as accumulation at G2/M phase at 8 uM after 48 hrs by propidium iodide staining based flow cytometric analysis (reference value: 2.29%); format: functional
[9] = system: A549; experiment: Induction of apoptosis in human A549 cells assessed as necrotic cells at 24 uM after 48 hrs by annexin V-FITC/propidium iodide staining-based flow cytometric method (reference value: 0.13%); format: functional
[10] = target: T1, Solute carrier family 2, facilitated glucose transporter member 1; experiment: Substrate activity at GLUT1 in human A549 cells assessed cellular uptake at 20 uM after 8 hrs in presence of 50 mM GLUT1 inhibitor EDG by HPLC analysis relative to control; format: ADME, cell-based; conditions: a549, 8 h
[11] = system: A549; experiment: Induction of apoptosis in human A549 cells assessed as necrotic cells at 16 uM after 48 hrs by annexin V-FITC/propidium iodide staining-based flow cytometric method (reference value: 0.13%); format: functional
[12] = system: A549; experiment: Induction of apoptosis in human A549 cells assessed as necrotic cells at 8 uM after 48 hrs by annexin V-FITC/propidium iodide staining-based flow cytometric method (reference value: 0.13%); format: functional
[13] = system: A549; experiment: Induction of apoptosis in human A549 cells assessed as early apoptotic cells at 24 uM after 48 hrs by annexin V-FITC/propidium iodide staining-based flow cytometric method (reference value: 3.87%); format: functional
[14] = system: A549; experiment: Induction of apoptosis in human A549 cells assessed as live cells at 8 uM after 48 hrs by annexin V-FITC/propidium iodide staining-based flow cytometric method (reference value: 93.6%); format: functional
[15] = system: A549; experiment: Cell cycle arrest in human A549 cells assessed as accumulation at G0/G1 phase after 48 hrs by propidium iodide staining based flow cytometric analysis; format: functional
[16] = system: A549; experiment: Induction of apoptosis in human A549 cells assessed as early apoptotic cells at 16 uM after 48 hrs by annexin V-FITC/propidium iodide staining-based flow cytometric method (reference value: 3.87%); format: functional
[17] = system: A549; experiment: Induction of apoptosis in human A549 cells assessed as late apoptotic cells at 16 uM after 48 hrs by annexin V-FITC/propidium iodide staining-based flow cytometric method (reference value: 2.39%); format: functional
[18] = system: A549; experiment: Induction of apoptosis in human A549 cells assessed as live cells at 24 uM after 48 hrs by annexin V-FITC/propidium iodide staining-based flow cytometric method (reference value: 93.6%); format: functional
[19] = system: A549; experiment: Induction of apoptosis in human A549 cells assessed as late apoptotic cells at 8 uM after 48 hrs by annexin V-FITC/propidium iodide staining-based flow cytometric method (reference value: 2.39%); format: functional
[20] = system: A549; experiment: Cell cycle arrest in human A549 cells assessed as accumulation at G2/M phase at 24 uM after 48 hrs by propidium iodide staining based flow cytometric analysis (reference value: 2.29%); format: functional
[21] = system: A549; experiment: Induction of apoptosis in human A549 cells assessed as early apoptotic cells at 8 uM after 48 hrs by annexin V-FITC/propidium iodide staining-based flow cytometric method (reference value: 3.87%); format: functional
[22] = system: A549; experiment: Cell cycle arrest in human A549 cells assessed as accumulation at G0/G1 phase at 8 uM after 48 hrs by propidium iodide staining based flow cytometric analysis (reference value: 42.86%); format: functional
[23] = system: A549; experiment: Cell cycle arrest in human A549 cells assessed as accumulation at G2/M phase at 16 uM after 48 hrs by propidium iodide staining based flow cytometric analysis (reference value: 2.29%); format: functional
[24] = system: A549; experiment: Cell cycle arrest in human A549 cells assessed as accumulation at G0/G1 phase at 24 uM after 48 hrs by propidium iodide staining based flow cytometric analysis (reference value: 42.86%); format: functional
[25] = system: A549; experiment: Cell cycle arrest in human A549 cells assessed as accumulation at G0/G1 phase at 16 uM after 48 hrs by propidium iodide staining based flow cytometric analysis (reference value: 42.86%); format: functional
[26] = system: A549; experiment: Cell cycle arrest in human A549 cells assessed as accumulation at S phase at 8 uM after 48 hrs by propidium iodide staining based flow cytometric analysis (reference value: 54.85%); format: functional
[27] = system: A549; experiment: Induction of apoptosis in human A549 cells after 48 hrs by annexin V-FITC/propidium iodide staining-based flow cytometric method; format: functional, cell-based
[28] = system: A549; experiment: Induction of apoptosis in human A549 cells assessed as late apoptotic cells at 24 uM after 48 hrs by annexin V-FITC/propidium iodide staining-based flow cytometric method (reference value: 2.39%); format: functional
[29] = system: A549; experiment: Cell cycle arrest in human A549 cells assessed as accumulation at S phase at 16 uM after 48 hrs by propidium iodide staining based flow cytometric analysis (reference value: 54.85%); format: functional
[30] = target: T1, Solute carrier family 2, facilitated glucose transporter member 1; experiment: Substrate activity at GLUT1 in human A549 cells assessed cellular uptake at 20 uM after 8 hrs in presence of 100 mM GLUT1 inhibitor EDG by HPLC analysis relative to control; format: ADME, cell-based; conditions: a549, 8 h
[31] = system: A549; experiment: Antimigratory activity against human A549 cells assessed as reduction in cell migration towards wound area after 48 hrs by phase contrast microscopic method; format: functional, cell-based
[32] = target: T1, Solute carrier family 2, facilitated glucose transporter member 1; experiment: Substrate activity at GLUT1 in human A549 cells assessed cellular uptake at 20 uM after 8 hrs in presence of 50 mM D-glucose by HPLC analysis relative to control; format: ADME, cell-based; conditions: a549, 8 h
[33] = system: A549; experiment: Potency index, ratio of gefitinib IC50 to compound IC50 against human A549 cells; format: functional
[34] = system: A549; experiment: Induction of apoptosis in human A549 cells assessed as live cells at 16 uM after 48 hrs by annexin V-FITC/propidium iodide staining-based flow cytometric method (reference value: 93.6%); format: functional

In the case of `COc1cc(CO)c(Br)c(Br)c1OCCCO[C@@H]1O[C@H](CO)[C@@H](O)[C@H]1O`, the IC50 [1] is reported as 18.8 µM, the IC50 [2] is reported as 11.2 µM and the IC50 [3] is reported as 23.6 µM. It also gave an IC50 [4] of 20.4 µM.
In the case of `COc1cc(COC(C)C)c(Br)c(Br)c1O`, the Drug uptake [5] is reported as “Not Active”.
Compound `COc1cc(COC(C)C)c(Br)c(Br)c1OCCCO[C@@H]1O[C@H](CO)[C@@H](O)[C@H]1O` has an Activity [6] of 10.25%, a Drug uptake [7] of 49.1% and an Activity [8] of 0%. It also gave an Activity [9] of 0.15%, a Drug uptake [10] of 42.1% and an IC50 [1] of 14.7 µM. The Activity [11] was 0.32%, the Activity [12] was 0.24% and the Activity [13] was 13.7%. The Activity [14] was 91.8%, the Activity [15] was “Dose-dependent effect” and the Activity [16] was 7.66%. The Activity [17] was 3.91%, the Activity [18] was 81.8% and the Activity [19] was 3.75%. The Drug uptake [5] was 60.3%, the Activity [20] was 0.19% and the Activity [21] was 4.18%. It also gave an IC50 [2] of 11.3 µM, an Activity [22] of 59.17% and an Activity [23] of 0%. The IC50 [3] was 11.4 µM, the Activity [24] was 89.56% and the Activity [25] was 76.56%. The Activity [26] was 40.83%, the Activity [27] was “Dose-dependent effect” and the Activity [28] was 4.35%. For the same compound, the Activity [29] was 23.44%, the Drug uptake [30] was 34.6% and the Activity [31] was “Dose-dependent effect”. For the same compound, the Drug uptake [32] was 51.6%, the “Ratio IC50” value [33] was 2 and the IC50 [4] was 19.3 µM. For the same compound, the Activity [34] was 88.1%.
